Measurements as given in patent publication US11246912B2, “Methods for treating and diagnosing metastatic liver cancer” (HADASIT MEDICAL RESEARCH SERVICES AND DEVELOPMENT LTD., priority 2017, dated 2022).
No end group written: not given here.

What was measured:
hepatic adropin RNA = test: Hepatic adropin RNA levels after adropin injection (qRT-PCR); format: in vivo, mouse
Experimental: FIG. 14 is a vertical bar graph showing the dose effects of a single adropin administration (i.p.) at the indicated doses (0 (naïve), 0.01 mg, 0.05 mg and 0.001 mg) on hepatic adropin RNA levels (measured by qRT-PCR). Each group comprised 4 mice.
FIG. 15 is a vertical bar graph showing the efficacy of different adropin routes of administration on hepatic adropin RNA in naïve mice (measured by qRT-PCR). Adropin was injected at a dose 0.01 mg. Naïve, non-injected; IP, intraperitoneal injection; SC, subcutaneous injection; IV, intravenous injection.
(§1) C57BL/6 mice were given a single injection of adropin at different concentrations and sacrificed at varied times afterward. […] The lower concentration induced higher effect.
The inventors then pursued optimization of adropin administration. With this respect, different doses of adropin were administered to mice and hepatic adropin RNA levels were quantified (FIG. 14). […] Reduction in the dose of the administered adropin led to a reduction in the administered adropin effect.
Further, the inventors examined whether the administration route of the adropin affects the hepatic adropin mRNA levels (FIG. 15).

[1] = system: normal fibroblasts (HF cells); test: XTT assay on normal fibroblasts; format: cell-based; details: 1×10^4 HF cells/well
Experimental: (§2) FIGS. 10A-10C are vertical bar graphs showing the specificity of adropin inhibition on proliferating cancer cells. No detectable effect of adropin treatment was observed (using XTT assay) on normal (A) fibroblasts (1×10^4 HF cells/well), (B) kidney cells (5×10^4 cells/well), and (C) hepatocytes (5×10^4 HepRG cells/well) in-vitro.
(§3) All cell lines were maintained in DMEM medium supplemented with 10% FCS, 1% Penicillin/Streptomycin and 1% L-Glutamine in 10 cm^2 plates in 5% humidified CO2 at 37° C. Twice a week cells were passaged. Detaching was done for MC-38, CT26 and normal cells by incubation with 1 ml trypsin for 2-3 min and then seeded (usually 1:10) in 10 ml DMEM supplemented medium which stopped the enzymatic process of trypsin. EL4 cells are grown in suspension, thus not requiring this stage. […] Cells were counted in a hemocytometer under a light microscope (magnification×10) immediately after the addition of Trypan blue solution (1:1 ratio). […] On the following day, the XTT reaction solution was added to the wells according to the cell proliferation kit (XTT based; Biological Industries, Israel) and the plate was read 2, 3 and 4 hours following, using a Magellan for Infinite F50 (Tecan, Switzerland) microplate reader at 450 nm. […]

[2] = Adropin stability under storage conditions by LC-MS; format: physicochemical
Source text: The inventors then examined the stability of adropin in vitro. For that, the inventors had set up a liquid chromatography mass spectrometry (LC-MS) assay and used it to examine the stability of adropin under different storage conditions (see Table 1). […] Contrary, approximately 50% degradation were observed when the dissolved peptide was stored at a room temperature for one month.

[3] = system: CT26 colorectal cancer cell line; test: XTT metabolic assay, CT26 cells; format: cell-based; details: CT26 seeded 5×10^3 cells/well
Experimental: FIGS. 9A-9D are vertical bar graphs showing the inhibitory effect of adropin on colorectal cancer cells.
(§4) All cell lines were maintained in DMEM medium supplemented with 10% FCS, 1% Penicillin/Streptomycin and 1% L-Glutamine in 10 cm^2 plates in 5% humidified CO2 at 37° C. Twice a week cells were passaged. Detaching was done for MC-38, CT26 and normal cells by incubation with 1 ml trypsin for 2-3 min and then seeded (usually 1:10) in 10 ml DMEM supplemented medium which stopped the enzymatic process of trypsin. EL4 cells are grown in suspension, thus not requiring this stage. For the experiments, after the trypsin detachment, 1 ml of cells was transferred into 13 ml medium and then the cells were centrifuged (1,400 rpm, 10 min, room temperature (RT)) and resuspended in 1 ml of fresh medium (for in vitro experiments) or sterile PBS×l (for mouse injections in vivo). Cells were counted in a hemocytometer under a light microscope (magnification×10) immediately after the addition of Trypan blue solution (1:1 ratio). Non-stained cells were considered viable. […] On the following day, the XTT reaction solution was added to the wells according to the cell proliferation kit (XTT based; Biological Industries, Israel) and the plate was read 2, 3 and 4 hours following, using a Magellan for Infinite F50 (Tecan, Switzerland) microplate reader at 450 nm.

[4] = system: hepatocytes (HepRG cells); test: XTT assay on normal hepatocytes; format: cell-based; details: 5×10^4 HepRG cells/well
Experimental: as §2, §3

MC38 cells = test: Direct cell count, MC38 cells; format: cell-based, murine; details: all tested seeding concentrations, up to 5×10^4 cells/well; compared with XTT
Experimental: as §4, with “nm. […]” for “nm.”

CT26 cells = test: Direct cell count, CT26 cells; format: cell-based
[5] = system: MC-38 (colorectal cancer cell line); test: XTT cell-proliferation test, MC-38 cells; format: cell-based, murine
Experimental: All cell lines were maintained in DMEM medium supplemented with 10% FCS, 1% Penicillin/Streptomycin and 1% L-Glutamine in 10 cm^2 plates in 5% humidified CO2 at 37° C. Twice a week cells were passaged. Detaching was done for MC-38, CT26 and normal cells by incubation with 1 ml trypsin for 2-3 min and then seeded (usually 1:10) in 10 ml DMEM supplemented medium which stopped the enzymatic process of trypsin. EL4 cells are grown in suspension, thus not requiring this stage. For the experiments, after the trypsin detachment, 1 ml of cells was transferred into 13 ml medium and then the cells were centrifuged (1,400 rpm, 10 min, room temperature (RT)) and resuspended in 1 ml of fresh medium (for in vitro experiments) or sterile PBS×l (for mouse injections in vivo). Cells were counted in a hemocytometer under a light microscope (magnification×10) immediately after the addition of Trypan blue solution (1:1 ratio). Non-stained cells were considered viable. For in-vivo mouse injections, the cells were diluted in sterile PBS xl to a final concentration of 5×10^4 for MC-38 cells or 5×10^5 for EL-4 cells per 100 μl. For XTT in vitro experiments, the cells were seeded in a 96-well plate (100 μl per well) in the morning and in the afternoon (once the cells adhered) the medium was changed according to the treatment (DMEM, Adropin 25 ng/ml, Adropin 50 ng/ml or Adropin 100 ng/ml). On the following day, the XTT reaction solution was added to the wells according to the cell proliferation kit (XTT based; Biological Industries, Israel) and the plate was read 2, 3 and 4 hours following, using a Magellan for Infinite F50 (Tecan, Switzerland) microplate reader at 450 nm.
To test adropin's direct effects on MC-38 cells, XTT cell-proliferation tests were performed with adropin added to the medium at different concentrations (25-100 ng/ml).

normal kidney cells = test: XTT assay on normal kidney cells; format: cell-based; details: kidney cells 5×10^4 cells/well
Experimental: as §2, §3

hepatic adropin protein = test: Hepatic adropin protein levels after single adropin injection; format: in vivo, mouse; details: C57BL/6 mice, single i.p. injection, different doses; lasting for two days
Experimental: FIGS. 12A-12B are vertical bar graphs showing the effect of single adropin polypeptide injection on endogenous hepatic adropin RNA (A) and (B) protein levels at the indicated doses and timing following i.p. injection (n represents number of mice per group).
Adropin levels were determined using the ELISA Kit (Cloud-Clone Corp., Texas, USA) for liver or serum mice samples according to the manufacturer's protocol. The results were analyzed using Magellan for Infinite F50 (Tecan, Switzerland).
as §1

[6] = Adropin stability during incubation with mouse serum (LC-MS); format: in vitro ADME; details: 24 hours incubation with mouse serum; read-out: adropin level remaining
Experimental: FIG. 11 is a graph showing adropin dynamic stability during incubation with mouse serum as measured with liquid chromatography mass spectrometry (LC-MS).
The next step was to assess the stability of adropin during incubation with human or mouse serum.

[7] = system: MC-38 colorectal liver metastases; test: MC-38 colorectal liver metastases model (intra-splenic cell injection) with adropin injection; format: in vivo, mouse
Experimental: Metastases model—In order to obtain metastases in the liver, a well-documented model was employed using the cancer cell lines derived from C57B1/6 mice—MC-38 or EL-4 cells. The cancer cells were injected intra-splenic into MDR2-Knockout (KO) and C57B1/6 mice at two and five months of age, and after 5 minutes the spleen was removed to prevent the development of a primary tumor in the spleen. Fourteen days later, the mice were euthanized, and their livers were removed in a similar manner to that described above.
Adropin injection—The adropin peptide (corresponding to amino acids at positions 34-76) was purchased from ChinaPeptides Co., Ltd. with a purity of >95%. The peptide was injected to mice according to two protocols. For the first protocol, termed ‘short adropin treatment’, adropin was injected at 450 nmole/kg in saline (80 μl injected), i.p., twice daily, for the five days surrounding the MC-38 CRC cell injection. For the second protocol, termed ‘prolonged adropin treatment’, 450 nmole/kg of adropin was injected i.p. (100 μl injected) once every three days from the morning of MC-38 cell injection throughout the experiment until the mice were sacrificed fourteen days later (a total of five injections).
Formalin-fixed paraffin-embedded tissue slides were stained with hematoxylin-eosin (H&E) staining and analyzed under a microscope using Cellsens Entry software (Olympus, Japan). The number and size of metastases larger than 4,000 μm^2 were recorded. The number of metastases was normalized relatively to the size of the liver sample analyzed.
A synthetic peptide of adropin (34-76 aa, purity: >95%) was then used to validate the findings regarding adropin's role in protecting the liver from metastases. The peptide, or saline as control, was injected (450 nmol/kg/i.p.) to mice during the week of cancer cell injection (2 days before, day of tumor cell injection and the following two days). A significant decrease of over 2.5-fold in the metastases size was observed, in the adropin-injected mice (FIG. 4B).
A further protocol was employed where adropin was injected every 3 days throughout the entire experiment period (14 days), starting from the morning of the cancer cell injection.
The mice were injected every two days with adropin (0.01 or 0.05 mg/i.p. injection) or saline starting from the morning of the MC-38 cell injection until being sacrificed two weeks later.

[8] = adropin 450 nmol/kg i.p., short treatment, vs saline
[9] = adropin 0.01 or 0.05 mg/i.p. injection every two days for two weeks, C57BL/6 mice
[10] = prolonged adropin treatment, 450 nmol/kg i.p. every 3 days for 14 days

CHSRSADVDSLSESSPNSSPGPCPEKAPPPQKPSHEGSYLLQP (cysteines drawn unpaired) [adropin]
hepatic adropin RNA levels (hepatic adropin RNA; C57BL/6 mice, single i.p. injection, different doses, lasting for two days): large increase | hepatic adropin mRNA levels (hepatic adropin RNA; intraperitoneal injection, 0.01 mg, naïve mice): greatest increase | hepatic adropin mRNA levels (hepatic adropin RNA; intravenous injection, 0.01 mg, naïve mice): substantial increase | hepatic adropin mRNA levels (hepatic adropin RNA; single i.p. dose of 0.001 mg): did not induce such an effect | hepatic adropin mRNA levels (hepatic adropin RNA; single i.p. dose of 0.005 mg): some increase | hepatic adropin mRNA levels (hepatic adropin RNA; single i.p. dose of 0.01 mg): substantially increase | hepatic adropin mRNA levels (hepatic adropin RNA; subcutaneous injection, 0.01 mg, naïve mice): did not seem to increase | effect of adropin treatment on normal cells (XTT) [1]: No detectable effects | Concentration obtained by LC-MS ([2]; 4° C. for 1 month): 84 ng/mL | Concentration obtained by LC-MS ([2]; Freeze/Thaw cycle × 3 (−20° C. to RT once a week)): 92 ng/mL | Concentration obtained by LC-MS ([2]; Room temperature (RT) for 1 month): 55 ng/mL | degradation of dissolved peptide ([2]; room temperature for one month): approximately 50% | Concentration obtained by LC-MS ([2]; −20° C. for 1 month): 95 ng/mL | stability dissolved in saline ([2]; −20° C. or −80° C., up to one month): highly stable | Concentration obtained by LC-MS ([2]; −80° C. and then 4° C. for 1 week): 99 ng/mL | Concentration obtained by LC-MS ([2]; −80° C. and then RT for 1 week): 94 ng/mL | Concentration obtained by LC-MS ([2]; −80° C. and then −20° C. for 1 week): 100 ng/mL | Concentration obtained by LC-MS ([2]; −80° C. for 1 month): 95 ng/mL | inhibition of proliferation (XTT metabolic assay, FIG. 9C) [3]: significant inhibition | effect of adropin treatment on normal cells (XTT) [4]: No detectable effects | inhibitory effect on the number of cells (direct cell count) (MC38 cells): even higher inhibitory effect | inhibition by direct cell counts (CT26 cells): same trends of inhibition | inhibition of proliferation (XTT metabolic assay, FIG. 9A) ([5]; MC38 seeded 5×10^3 cells/well): significant inhibition | reduction in cell number (XTT) ([5]; adropin 100 ng/ml, seeded 1×10^3 cells/well): significant reduction in cell number | reduction in cell number (XTT) ([5]; adropin 100 ng/ml, seeded 5×10^3 cells/well): significant reduction in cell number | proliferation levels (XTT) ([5]; adropin 25-100 ng/ml in medium): decrease in the proliferation levels of the colorectal cancer cells in a dose dependent manner | reduction in cell number (XTT) ([5]; adropin 25 or 100 ng/ml, seeded 5×10^4 cells/well): No significant reduction | effect of adropin treatment on normal cells (XTT) (normal kidney cells): No detectable effects | hepatic adropin protein levels (hepatic adropin protein): large increase | remaining at 24 h [6]: 55% | BrdU levels in the hepatic parenchyma [7, 8]: no differences | number of BrdU stained cells in the tumors [7, 8]: decrease in the number of BrdU stained cells | number of hepatic metastases [7, 9]: significantly improved effects | size of hepatic metastases [7, 9]: significantly improved effects | number of liver metastases [7, 10]: reduced upon adropin injections (marginally significant) | size of liver metastases [7, 10]: reduced upon adropin injections (marginally significant) | decrease in the metastases size ([7]; short adropin treatment, 450 nmol/kg i.p., 2 days before, day of and two days after MC-38 cell injection, vs saline): over 2.5 fold
